# Reference: ChEMBL document CHEMBL4041509, “Structure-activity relationship study of novel 2-aminobenzofuran derivatives as P-glycoprotein inhibitors” (Eur J Med Chem, 2017)
# Calls of active or inactive are those of the source. The rule behind the calls is not given here.
# What was measured:
# [1] = species: Homo sapiens; assay: Inhibition of P-gp in human HeLaS3 cells assessed as potentiation of paclitaxel-induced cytotoxicity at 1 uM by SRB assay relative to control; type: cell-based
# [2] = test system: HEK293; assay: Potentiation of paclitaxel-induced cytotoxicity against human Flp-In-293 cells at 1 uM by SRB assay relative to control; type: functional
# [3] = species: Homo sapiens; assay: Inhibition of P-gp in human KBVIN cells assessed as potentiation of vincristine-induced cytotoxicity at 1 uM by SRB assay relative to control; type: cell-based
# [4] = molecular target: T1, ATP-dependent translocase ABCB1 (Homo sapiens, UniProt P08183); assay: Inhibition of ABCB1 (unknown origin) expressed in human Flp-In-293 cells assessed as potentiation of vincristine-induced cytotoxicity at 2.5 uM by SRB assay relative to control; type: cell-based
# T1 sequence (P08183 whole entry): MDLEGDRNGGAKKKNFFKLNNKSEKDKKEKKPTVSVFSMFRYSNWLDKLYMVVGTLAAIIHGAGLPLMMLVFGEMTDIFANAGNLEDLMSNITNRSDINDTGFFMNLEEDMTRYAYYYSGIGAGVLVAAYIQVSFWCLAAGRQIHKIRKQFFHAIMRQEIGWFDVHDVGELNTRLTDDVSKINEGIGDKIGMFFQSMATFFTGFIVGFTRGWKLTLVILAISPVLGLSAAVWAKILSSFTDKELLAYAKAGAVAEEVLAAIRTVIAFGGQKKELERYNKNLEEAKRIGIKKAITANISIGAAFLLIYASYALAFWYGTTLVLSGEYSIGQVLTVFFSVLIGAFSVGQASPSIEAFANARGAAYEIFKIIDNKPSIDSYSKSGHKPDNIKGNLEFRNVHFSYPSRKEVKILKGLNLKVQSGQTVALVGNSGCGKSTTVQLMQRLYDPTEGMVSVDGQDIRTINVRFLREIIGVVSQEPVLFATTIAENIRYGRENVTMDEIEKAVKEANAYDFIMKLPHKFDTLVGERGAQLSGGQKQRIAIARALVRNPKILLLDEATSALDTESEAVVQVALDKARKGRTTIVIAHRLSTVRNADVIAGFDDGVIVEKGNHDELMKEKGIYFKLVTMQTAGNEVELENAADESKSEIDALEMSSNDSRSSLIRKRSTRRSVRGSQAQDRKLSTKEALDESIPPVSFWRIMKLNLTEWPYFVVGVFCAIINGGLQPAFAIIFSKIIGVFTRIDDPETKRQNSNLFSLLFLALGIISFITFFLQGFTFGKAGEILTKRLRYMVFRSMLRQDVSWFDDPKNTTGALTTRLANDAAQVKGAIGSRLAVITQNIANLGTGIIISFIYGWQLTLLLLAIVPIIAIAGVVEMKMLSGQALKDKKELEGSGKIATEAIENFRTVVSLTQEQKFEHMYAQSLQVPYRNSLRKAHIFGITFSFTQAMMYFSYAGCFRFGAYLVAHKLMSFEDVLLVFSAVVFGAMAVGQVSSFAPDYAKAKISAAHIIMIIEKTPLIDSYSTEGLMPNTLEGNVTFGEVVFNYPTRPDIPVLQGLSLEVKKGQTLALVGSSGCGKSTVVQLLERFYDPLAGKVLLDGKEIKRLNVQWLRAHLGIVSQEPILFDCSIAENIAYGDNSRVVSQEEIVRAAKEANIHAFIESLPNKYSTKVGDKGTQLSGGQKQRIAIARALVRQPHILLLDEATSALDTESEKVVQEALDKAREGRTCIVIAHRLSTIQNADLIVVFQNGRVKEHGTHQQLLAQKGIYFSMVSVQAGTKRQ
# [5] = Cytotoxicity against human KBVIN assessed as reduction in cell viability by SRB assay; type: cell-based
# [6] = test system: HEK293; assay: Potentiation of vincristine-induced cytotoxicity against human Flp-In-293 cells at 2.5 uM by SRB assay relative to control; type: functional
# [7] = test system: HEK293; assay: Potentiation of vincristine-induced cytotoxicity against human Flp-In-293 cells at 1 uM by SRB assay relative to control; type: functional
# [8] = molecular target: T1, ATP-dependent translocase ABCB1; assay: Inhibition of ABCB1 (unknown origin) expressed in human Flp-In-293 cells assessed as potentiation of doxorubicin-induced cytotoxicity at 1 uM by SRB assay relative to control; type: cell-based
# [9] = species: Homo sapiens; assay: Inhibition of P-gp in human KBVIN cells assessed as potentiation of vincristine-induced cytotoxicity at 2.5 uM by SRB assay relative to control; type: cell-based
# [10] = species: Homo sapiens; assay: Inhibition of P-gp in human KBVIN cells assessed as potentiation of doxorubicin-induced cytotoxicity at 1 uM by SRB assay relative to control; type: cell-based
# [11] = molecular target: T1, ATP-dependent translocase ABCB1; assay: Inhibition of ABCB1 (unknown origin) expressed in human Flp-In-293 cells assessed as potentiation of doxorubicin-induced cytotoxicity by SRB assay; type: cell-based
# [12] = molecular target: T1, ATP-dependent translocase ABCB1; assay: Inhibition of ABCB1 (unknown origin) expressed in Flp-In-293 cells assessed as increase in calcein-AM uptake at 10 uM preincubated for 30 mins followed by calcein-AM addition measured after 30 mins by fluorescence spectrometric method relative to control; type: cell-based; conditions: 0.5 h
# [13] = species: Homo sapiens; assay: Inhibition of P-gp in human HeLaS3 cells assessed as potentiation of paclitaxel-induced cytotoxicity at 2.5 uM by SRB assay relative to control; type: cell-based
# [14] = test system: HEK293; assay: Effect on ABCB1 mRNA expression in human Flp-In-293 cells expressing ABCB1 at 5 uM after 72 hrs by qRT-PCR method; type: functional, cell-based
# [15] = molecular target: T1, ATP-dependent translocase ABCB1; assay: Inhibition of ABCB1 (unknown origin) expressed in human Flp-In-293 cells assessed as potentiation of paclitaxel-induced cytotoxicity by SRB assay; type: cell-based
# [16] = test system: HEK293; assay: Cytotoxicity against human Flp-In-293 cells assessed as reduction in cell viability by SRB assay; type: cell-based
# [17] = molecular target: T1, ATP-dependent translocase ABCB1; assay: Inhibition of ABCB1 (unknown origin) expressed in human Flp-In-293 cells assessed as potentiation of paclitaxel-induced cytotoxicity at 1 uM by SRB assay relative to control; type: cell-based
# [18] = species: Homo sapiens; assay: Inhibition of P-gp in human HeLaS3 cells assessed as potentiation of doxorubicin-induced cytotoxicity at 1 uM by SRB assay relative to control; type: cell-based
# [19] = molecular target: T1, ATP-dependent translocase ABCB1; assay: Inhibition of ABCB1 (unknown origin) expressed in human Flp-In-293 cells assessed as potentiation of vincristine-induced cytotoxicity at 1 uM by SRB assay relative to control; type: cell-based
# [20] = test system: HeLa S3; assay: Cytotoxicity against human HeLaS3 assessed as reduction in cell viability by SRB assay; type: cell-based
# [21] = species: Homo sapiens; assay: Inhibition of P-gp in human HeLaS3 cells assessed as potentiation of vincristine-induced cytotoxicity at 1 uM by SRB assay relative to control; type: cell-based
# [22] = species: Homo sapiens; assay: Inhibition of P-gp in human KBVIN cells assessed as potentiation of paclitaxel-induced cytotoxicity at 1 uM by SRB assay relative to control; type: cell-based
# [23] = species: Homo sapiens; assay: Inhibition of P-gp in human KBVIN cells assessed as potentiation of doxorubicin-induced cytotoxicity at 2.5 uM by SRB assay relative to control; type: cell-based
# [24] = molecular target: T1, ATP-dependent translocase ABCB1; assay: Inhibition of ABCB1 (unknown origin) expressed in Flp-In-293 cells assessed as increase in calcein-AM uptake at 5 uM preincubated for 30 mins followed by calcein-AM addition measured after 30 mins by fluorescence spectrometric method relative to control; type: cell-based; conditions: 0.5 h
# [25] = molecular target: T1, ATP-dependent translocase ABCB1; assay: Inhibition of ABCB1 (unknown origin) expressed in human Flp-In-293 cells assessed as potentiation of doxorubicin-induced cytotoxicity at 2.5 uM by SRB assay relative to control; type: cell-based
# [26] = species: Homo sapiens; assay: Inhibition of P-gp in human HeLaS3 cells assessed as potentiation of vincristine-induced cytotoxicity at 2.5 uM by SRB assay relative to control; type: cell-based
# [27] = test system: HEK293; assay: Potentiation of paclitaxel-induced cytotoxicity against human Flp-In-293 cells at 2.5 uM by SRB assay relative to control; type: functional
# [28] = test system: HEK293; assay: Cytotoxicity against human Flp-In-293 cells expressing MDR1 assessed as reduction in cell viability by SRB assay; type: ADME, cell-based
# [29] = species: Homo sapiens; assay: Inhibition of P-gp in human HeLaS3 cells assessed as potentiation of paclitaxel-induced cytotoxicity by SRB assay; type: cell-based
# [30] = species: Homo sapiens; assay: Inhibition of P-gp in human HeLaS3 cells assessed as potentiation of doxorubicin-induced cytotoxicity by SRB assay; type: cell-based
# [31] = species: Homo sapiens; assay: Inhibition of P-gp in human KBVIN cells assessed as potentiation of doxorubicin-induced cytotoxicity by SRB assay; type: cell-based
# [32] = species: Homo sapiens; assay: Inhibition of P-gp in human KBVIN cells assessed as potentiation of paclitaxel-induced cytotoxicity at 2.5 uM by SRB assay relative to control; type: cell-based
# [33] = molecular target: T1, ATP-dependent translocase ABCB1; assay: Inhibition of ABCB1 (unknown origin) expressed in human Flp-In-293 cells assessed as potentiation of vincristine-induced cytotoxicity by SRB assay; type: cell-based
# [34] = test system: HEK293; assay: Effect on ABCB1 mRNA expression in human Flp-In-293 cells at 5 uM after 72 hrs by qRT-PCR method; type: functional, cell-based
# [35] = species: Homo sapiens; assay: Inhibition of P-gp in human HeLaS3 cells assessed as potentiation of doxorubicin-induced cytotoxicity at 2.5 uM by SRB assay relative to control; type: cell-based
# [36] = species: Homo sapiens; assay: Inhibition of P-gp in human KBVIN cells assessed as potentiation of vincristine-induced cytotoxicity by SRB assay; type: cell-based
# [37] = species: Homo sapiens; assay: Inhibition of P-gp in human HeLaS3 cells assessed as potentiation of vincristine-induced cytotoxicity by SRB assay; type: cell-based
# [38] = species: Homo sapiens; assay: Inhibition of P-gp in human KBVIN cells assessed as potentiation of paclitaxel-induced cytotoxicity by SRB assay; type: cell-based
# [39] = test system: HEK293; assay: Potentiation of doxorubicin-induced cytotoxicity against human Flp-In-293 cells at 2.5 uM by SRB assay relative to control; type: functional
# [40] = test system: HEK293; assay: Potentiation of doxorubicin-induced cytotoxicity against human Flp-In-293 cells at 1 uM by SRB assay relative to control; type: functional
# [41] = molecular target: T1, ATP-dependent translocase ABCB1; assay: Inhibition of ABCB1 (unknown origin) expressed in human Flp-In-293 cells assessed as potentiation of paclitaxel-induced cytotoxicity at 2.5 uM by SRB assay relative to control; type: cell-based
smiles,measurement,setting,value
COc1ccc(-c2cc(OCCN3CCCC3)c3c(-c4cccs4)c(N)oc3c2)cc1,fold change (FC),[1],3.69
same,fold change (FC),[2],0.98
same,fold change (FC),[3],177
same,fold change (FC),[4],9.07
same,IC50,[5],35.5 µM
same,fold change (FC),[6],7.15
same,fold change (FC),[7],1.95
same,fold change (FC),[8],2.65
same,fold change (FC),[9],260
same,fold change (FC),[10],1.37
same,inhibition (INH),[11],Dose-dependent effect
same,fold change (FC),[12],10.4
same,fold change (FC),[13],4.06
same,Activity,[14],inactive
same,inhibition (INH),[15],Dose-dependent effect
same,IC50,[16],33.5 µM
same,fold change (FC),[17],1.18
same,fold change (FC),[18],1.1
same,fold change (FC),[19],2.58
same,IC50,[20],38.1 µM
same,fold change (FC),[21],1.08
same,fold change (FC),[22],2.8
same,fold change (FC),[23],1.94
same,fold change (FC),[24],6.78
same,fold change (FC),[25],6.14
same,fold change (FC),[26],1.13
same,fold change (FC),[27],1.39
same,IC50,[28],36.4 µM
same,inhibition,[29],Dose-dependent effect
same,inhibition,[30],Dose-dependent effect
same,inhibition,[31],Dose-dependent effect
same,fold change (FC),[32],14.7
same,inhibition (INH),[33],Dose-dependent effect
same,Activity,[34],inactive
same,fold change (FC),[35],1.47
same,inhibition,[36],Dose-dependent effect
same,inhibition,[37],Dose-dependent effect
same,inhibition,[38],Dose-dependent effect
same,fold change (FC),[39],0.97
same,fold change (FC),[40],0.98
same,fold change (FC),[41],10.03
COc1ccc(-c2cc(OCCN3CCCC3)c3c(-c4cccs4)c(N)oc3c2)cc1OC,fold change (FC),[1],3.8
same,fold change (FC),[2],0.92
same,fold change (FC),[3],25.7
same,fold change (FC),[4],5.92
same,IC50,[5],36.3 µM
same,fold change (FC),[6],8.36
same,fold change (FC),[7],4.25
same,fold change (FC),[8],2.78
same,fold change (FC),[9],34.2
same,fold change (FC),[10],1.51
same,inhibition (INH),[11],Dose-dependent effect
same,fold change (FC),[12],9.12
same,fold change (FC),[13],3.97
same,Activity,[14],inactive
same,inhibition (INH),[15],Dose-dependent effect
same,IC50,[16],36.5 µM
same,fold change (FC),[17],1.23
same,fold change (FC),[18],0.9
same,fold change (FC),[19],1.69
same,IC50,[20],38 µM
same,fold change (FC),[21],1.17
same,fold change (FC),[22],2.55
same,fold change (FC),[23],1.88
same,fold change (FC),[24],8.52
same,fold change (FC),[25],3.95
same,fold change (FC),[26],1.08
same,fold change (FC),[27],1.38
same,IC50,[28],37 µM
same,inhibition,[29],Dose-dependent effect
same,inhibition,[30],Dose-dependent effect
same,inhibition,[31],Dose-dependent effect
same,fold change (FC),[32],9.27
same,inhibition (INH),[33],Dose-dependent effect
same,Activity,[34],inactive
same,fold change (FC),[35],2.71
same,inhibition,[36],Dose-dependent effect
same,inhibition,[37],Dose-dependent effect
same,inhibition,[38],Dose-dependent effect
same,fold change (FC),[39],0.96
same,fold change (FC),[40],0.91
same,fold change (FC),[41],2.65
COc1ccc(-c2cc(OCc3cccc(Cl)c3)c3c(-c4cccs4)c(N)oc3c2)cc1,fold change (FC),[12],0.56
same,fold change (FC),[24],0.6
COc1ccc(-c2cc(OCCN3CCOCC3)c3c(-c4cccs4)c(N)oc3c2)cc1OC,fold change (FC),[12],8.85
same,fold change (FC),[24],8.42
COc1ccc(-c2cc(OCc3ccccn3)c3c(-c4cccs4)c(N)oc3c2)cc1,fold change (FC),[12],4.33
same,fold change (FC),[24],3.22
